Read-outs that look alike come from different tables or passages of the source. Values belong to the compound of their own block, whether it stands above or below them.
What was measured:
[1] = system: lung cancer cells (line MV522); experiment: Cancer cell proliferation (MV522) assay; type: cell-based
Protocol: The protocol for assessing cellular proliferation in cancer cells is similar to that used for assessments in HUVEC cells. Two thousand lung cancer cells (line MV522, acquired from American Tissue Cultural Collection) were seeded in growth media (RPMI1640 medium supplemented with 2 mM glutamine and 10% FBS). Cells are allowed to attach for 1 day prior to addition of test agents and /or vehicles. Cells are treated simultaneously with the same test agents used in the HUVEC assay. Cellular proliferation is quantified by MTT dye reduction assay 72 hours after exposure to test agents. The total length of the assay is 4 days vs. 5 for HUVEC cells because MV522 cells are not exposed to starvation medium.

[2] = biological target: T1, phosphorylated Tie-2 (aa 775-1122) (Homo sapiens, UniProt Q02763); experiment: TIE-2 spectrophotometric assay; type: biochemical; conditions: Table 5; 1 µM; bold values spectrophotometric assay, non-bolded DELFIA assay (bold not visible here); read-out: % Inhibition @ 1 µM Tie2-P
T1 construct: 4 to 12 nM phosphorylated Tie-2 (aa 775-1122); made in house; host or cells: insect cells
Protocol: This construct also carries a R774M mutation, which serves as the initiating methionine residue in translation.
The kinase-catalyzed production of ADP from ATP that accompanies phosphoryl transfer to the random copolymer poly(Glu4 Tyr) was coupled to the oxidation of NADH through the activities of pyruvate kinase (PK) and lactate dehydrogenase (LDH). NADH conversion to NAD* was monitored by the decrease in absorbance at 340 nm (ε = 6.22 cm^-1mM^-1) using a Beckman DU650 spectrophotometer. Typical reaction solutions contained 1 mM phosphoenolpyruvate, 0.24 mM NADH, 40 mM MgCl2, 5 mM DTT, 2.9 mg/mL poly(Glu4Tyr), 0.5 mM ATP, 15 units/mL PK, 15 units/mL LDH in 100 mM HEPES, pH 7.5. […]

[3] = system: human umbilical vein endothelial cells (HUVEC); experiment: HUVEC proliferation assay (VEGF-stimulated, MTT); type: cell-based; conditions: Homo sapiens, HUVEC, Table 1
LCK tyrosine kinase = LCK tyrosine kinase (Homo sapiens, UniProt P06239, C224D/P223M); experiment: LCK spectrophotometric assay; type: biochemical; conditions: Table 1; compound concentration 1 µM; read-out: Lck-P* (% inhibition)
Protocol: The spectrophotometric assay was carried out as described above for VEGF-R2, except for the following changes in concentration: LCK = 60 nM, MgCl2 = 0 mM, poly(E4Y1) = 20 mM.

in vitro = in vitro ADME, human; conditions: human liver microsomes, 5 µM test compound, 37 °C, 2 h
In short: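 HLM diluted to 5 mg/mL in 100 mM KPO4, preincubated 10 min at 37 °C with NADPH-regenerating system. Compound (5 µM final) incubated at 37 °C in triplicate, sampled at 0 and 2 h into ice-cold acetonitrile, then LC-MS analysis.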

human FGF-R1 = human FGF-R1 (Homo sapiens, UniProt P11362, C488A/C584S/L457V); experiment: FGF-R spectrophotometric assay; type: biochemical; conditions: Table 1; compound concentration 1 µM; read-out: FGF-P* (% inhibition)
Protocol: The spectrophotometric assay was carried out as described above for VEGF-R2, except for the following changes in concentration: FGF-R = 50 nM, ATP = 2 mM, and poly(E4Y1) =15 mM.

in vivo = conditions: mouse, plasma, pH 2.3
[4] = biological target: unphosphorylated VEGF-R2Δ50 (Homo sapiens, UniProt P35968, DEL940-989/E990V); experiment: biochemical; conditions: read-out: FLVK ** (% inhibition)
[5] = system: VEGF dependent retinal vascular development; experiment: In vivo assay of retinal vascular development in neonatal rats; design: species or system rat; conditions: 5 mg/ml
Protocol: The development of the retinal vascular in rats occurs from postnatal day 1 to postnatal day 14 (P1-P14). […] To assess the ability of specific compounds to inhibit the activity of VEGF in vivo, compounds were formulated in an appropriate vehicle, usually 50% polyethylene glycol, average molecular weight 400 daltons, and 50% solution of 300 mM sucrose in deionized water. […] Six days after the intravitreal injection, the animals were sacrificed and the retinas dissected free from the remaining ocular tissue. […] The individual retinas are then flat-mount onto glass slides and examined to determine the extent of vascularization. […] The amount of vessel regression was used to assess the relative potency of the compounds after in vivo administration.
For more quantitative analysis of regression, images of ADPase-stained, flat-mounted retinas were captured with a digital camera attached to a dissecting microscope. Retinal images were then imported into an image analysis software (Image Pro Plus 4.0, Media Cybernetics, Silver Spring, MD). The software was employed to determine the percentage of the area of the retina that contained stained vessels. This value for the experimental eye was compared to that measured for the vehicle injected, contralateral eye from the same animal. The reduction in the vascular area seen in the eye that received compound as compared to the vehicle-injected eye was then expressed as the "percent regression" for that sample.

[6] = system: VEGF dependent retinal neovascularization; experiment: Neonatal rat model of retinopathy of prematurity; type: in vivo; conditions: Model ROP, intravitreal, vehicle PEG/water 70:30
Protocol: A second model of VEGF dependent retinal neovascularization was employed to evaluate the activities of this series of compounds. […] The animals are exposed for 24 hours to a concentration of 50% oxygen followed by 24 hours at a concentration of 10% oxygen. This alternating cycle of hyperoxia followed by hypoxia is repeated 7 times after which the animals are removed to room air (P14). Compounds are administered via intravitreal injection upon removal to room air and the animals are sacrificed 6 days later (P20). The isolated retinas are then isolated, stained mounted and analyzed as detail above in the development model. The effectiveness was also graded as is described for the development model.

[7] = MV522, Table 1, read-out: MV522 IC50
[8] = + albumin, read-out: HUVEC + albumin IC50
[9] = PO, 50 mg/kg, vehicle PEG400:H2O pH 2.3 60:40
[10] = Model P8, intravitreal, vehicle PEG/water 50:50
[11] = mouse, in vivo, ip, 25 mg/kg, pH 2.3
[12] = mouse, in vivo, po, 50 mg/kg, pH 2.3
[13] = IP, 25 mg/kg, vehicle PEG400:H2O pH 2.3 30:70
[14] = PO, 50 mg/kg, vehicle PEG400:H2O pH 2.3 30:70

Chain of human FGF-R1 (P11362 456-766 L457V/C488A/C584S): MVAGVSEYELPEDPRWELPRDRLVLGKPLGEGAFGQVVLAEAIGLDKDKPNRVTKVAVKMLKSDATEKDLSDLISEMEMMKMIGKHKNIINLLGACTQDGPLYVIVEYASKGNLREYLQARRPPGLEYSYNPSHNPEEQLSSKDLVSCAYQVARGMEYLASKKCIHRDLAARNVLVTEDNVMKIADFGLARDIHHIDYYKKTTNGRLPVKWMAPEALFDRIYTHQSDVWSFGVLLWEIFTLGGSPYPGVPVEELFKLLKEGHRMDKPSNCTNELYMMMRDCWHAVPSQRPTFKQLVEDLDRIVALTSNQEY
Chain of LCK tyrosine kinase (P06239 223-509 P223M/C224D): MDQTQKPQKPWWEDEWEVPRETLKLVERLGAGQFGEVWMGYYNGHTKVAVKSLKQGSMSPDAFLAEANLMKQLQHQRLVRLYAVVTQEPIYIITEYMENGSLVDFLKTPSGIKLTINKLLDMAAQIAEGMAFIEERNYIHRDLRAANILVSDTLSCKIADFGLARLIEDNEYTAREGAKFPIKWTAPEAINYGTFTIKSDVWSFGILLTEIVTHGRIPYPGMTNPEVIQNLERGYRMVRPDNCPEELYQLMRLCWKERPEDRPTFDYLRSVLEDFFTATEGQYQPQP
Chain of unphosphorylated VEGF-R2Δ50 (P35968 with tags, fused parts or gaps DEL940-989/E990V limits assumed): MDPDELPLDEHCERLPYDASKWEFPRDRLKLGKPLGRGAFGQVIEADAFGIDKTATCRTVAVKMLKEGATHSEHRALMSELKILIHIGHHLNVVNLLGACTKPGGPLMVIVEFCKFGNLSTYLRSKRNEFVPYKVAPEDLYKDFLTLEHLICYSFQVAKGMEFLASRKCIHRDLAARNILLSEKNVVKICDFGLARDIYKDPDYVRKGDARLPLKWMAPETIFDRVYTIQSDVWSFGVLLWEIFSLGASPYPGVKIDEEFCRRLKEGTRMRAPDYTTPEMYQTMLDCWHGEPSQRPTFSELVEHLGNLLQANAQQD
T1 sequence (Q02763 775-1122): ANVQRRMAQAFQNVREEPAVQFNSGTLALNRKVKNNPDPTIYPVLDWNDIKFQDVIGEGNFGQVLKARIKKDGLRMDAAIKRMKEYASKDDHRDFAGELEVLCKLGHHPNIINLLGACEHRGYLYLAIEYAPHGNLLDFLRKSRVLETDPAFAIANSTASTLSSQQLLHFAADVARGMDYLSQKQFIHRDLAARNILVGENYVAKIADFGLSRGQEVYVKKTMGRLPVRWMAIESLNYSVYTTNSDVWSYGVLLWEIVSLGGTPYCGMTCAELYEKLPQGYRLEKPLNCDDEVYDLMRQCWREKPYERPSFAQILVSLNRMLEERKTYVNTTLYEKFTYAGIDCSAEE

SMILES: COc1cc(-c2ccc3c(-c4ccc5ccccc5c4)n[nH]c3c2)ccc1O [2(a), 3-(Naphthalen-2-yl)-6-(3-methoxy-4-hydroxy-phenyl)-1H-indazole]
IC50 ([1]; MV522, read-out: MV522 IC50 (µM)): 0.58 µM

SMILES: Cc1cnc(C(=O)Nc2cccc(Oc3ccc4c(/C=C/c5ccccc5)n[nH]c4c3)c2)s1 [5(a), 5-Methyl-thiazole-2-carboxylic acid {3-(3-styryl-1H-indazol-6-yloxy)-phenyl]-amide]
inhibition at 1 µM [2]: 44%
IC50 ([3]; read-out: HUVEC IC50): 12 nM
inhibition at 1 µM (LCK tyrosine kinase): 28%
IC50 [1, 7]: 9.6 µM

SMILES: CC(=O)Nc1cccc(N(C)c2ccc3c(/C=C/c4ccccc4)n[nH]c3c2)c1 [12(a), N-{3-[Methyl-(3-styryl-1H-indazol-6-yl)-amino]-phenyl]-acetamide]
IC50 [3, 8]: 87 nM
IC50 ([3]; read-out: HUVEC IC50): 6 nM
inhibition at 1 µM (LCK tyrosine kinase): 17%
IC50 [1, 7]: 2.1 µM

SMILES: O=C(c1cccc(NC(=O)c2cccc3[nH]ccc23)c1)c1ccc2c(/C=C/c3ccccc3)n[nH]c2c1 [19(f), 6-[3-(indol-4-ylcarboxamido)benzoyl]-3-E-styryl-1H-indazole]
IC50 [3, 8]: 16 nM
IC50 ([3]; read-out: HUVEC IC50): 2.3 nM
% remain (HLM, 2 h) (in vitro): 98%
inhibition at 1 µM (LCK tyrosine kinase): 52%
IC50 [1, 7]: 3.9 µM
inhibition at 1 µM (human FGF-R1): 58%

SMILES: CC(C)C(=O)Nc1cccc(C(=O)c2ccc3c(/C=C/c4ccccc4)n[nH]c3c2)c1 [19(h), 6-[3-(2-methylpropionamido)benzoyl]-3-E-styryl-1H indazole]
IC50 ([3]; read-out: HUVEC IC50): 600 nM
IC50 [1, 7]: 7.9 µM

SMILES: O=C(c1cccc(NC(=O)c2ccccn2)c1)c1ccc2c(/C=C/c3ccccc3)n[nH]c2c1 [19(k), 6-[3-(pyridin-2-ylcarboxamido)benzoyl)-3-E-styryl-1H-indazole]
AUC (in vivo; ip, 25 mg/kg): 428 ng·h/mL
AUC (in vivo; po, 50 mg/kg): 19 ng·h/mL
IC50 ([3]; read-out: HUVEC IC50): 2.6 nM
% remain (HLM, 2 h) (in vitro): 58%
inhibition at 1 µM (LCK tyrosine kinase): 37%
IC50 [1, 7]: 4 µM
inhibition at 1 µM (human FGF-R1): 41%
inhibition at 0.05 µM [4]: 100%
T1/2 (IP, 25 mg/kg, vehicle PEG400:H2O pH 2.3 60:40): 2.2 h
Cmin (7 hr conc.) [9]: 4 ng/mL
T1/2 [9]: 2.2 h

SMILES: O=C(c1cccc(NC(=O)c2cc(Cl)ccn2)c1)c1ccc2c(/C=C/c3ccccc3)n[nH]c2c1 [19(n), 6-[3-(4-chloropyridin-2-ylcarboxamido)benzoyl)-3-E-styryl-1H-indazole]
IC50 [3, 8]: 23 nM
IC50 ([3]; read-out: HUVEC IC50): 3.4 nM
inhibition at 1 µM (LCK tyrosine kinase): 26%
IC50 [1, 7]: 2.9 µM
inhibition at 1 µM (human FGF-R1): 48%

SMILES: CC(=O)Nc1cccc(Sc2ccc3c(/C=C/c4ccccc4)n[nH]c3c2)c1 [20(a), 6-(3-Acetamido-phenylsulfanyl)-3-styryl-1H-indazole]
IC50 ([3]; read-out: HUVEC IC50): 200 nM
IC50 [1, 7]: 9.4 µM

SMILES: C=C(c1cccc(NC(=O)c2ccccc2)c1)c1ccc2c(/C=C/c3ccccc3)n[nH]c2c1 [22(b), 6-(1-(3-(Benzoylamido)phenyl)-vinyl)-3-styryl-1H-indazole]
IC50 ([3]; read-out: HUVEC IC50): 4.8 nM
IC50 [1, 7]: 8.5 µM

SMILES: C/C=C/C(=O)Nc1cccc(C(=O)c2ccc3c(/C=C/c4ccccn4)n[nH]c3c2)c1 [41 (c)]
Initial Evaluation [5, 10]: ++ (two pluses being judged to be approximately 25-75 % regression)
% Inhibition ([6]; 1 mg/ml): 16%
% Inhibition ([6]; 10 mg/ml): 54%
Initial Evaluation ([6]; 10 mg/ml): +++ (three pluses give to retinas with near total regression (approximately 75% or greater))
AUCleast [11]: 3397 ng·h/mL
T1/2 [11]: 1.7 h
AUCleast [12]: 3182 ng·h/mL
T1/2 [12]: 2.6 h

IC50 [1, 7]: > 10 µM
SMILES: O=C(Nc1cccc(C(=O)c2ccc3c(-c4nc5cccnc5[nH]4)n[nH]c3c2)c1)c1ccccc1 [Example 42(d), 6-(3-benzamidobenzoyl)-3-(3H-imidazo[4,5-b]pyridin-2-yl)-1H-indazole]

SMILES: O=C(Nc1cccc(Oc2ccc3c(/C=C/c4ccccn4)n[nH]c3c2)c1)c1ccccc1 [Reference Example 31(a), 6-[3-benzamidophenoxy]-3-E-[2-(Pyridin-2-yl)ethenyl]-1H-indazole]
AUC (in vivo; ip, 25 mg/kg): 47500 ng·h/mL
AUC (in vivo; po, 50 mg/kg): 40900 ng·h/mL
IC50 [3, 8]: 10 nM
IC50 ([3]; read-out: HUVEC IC50): 0.7 nM
% remain (HLM, 2 h) (in vitro): 58%
inhibition at 1 µM (LCK tyrosine kinase): 77%
% Inhibition ([5]; Model P8, intravitreal, vehicle PEG/water 70:30): 46%
inhibition at 1 µM (human FGF-R1): 95%
T1/2 [13]: 2.4 h
T1/2 [14]: 1.6 h

SMILES: Cc1cc(C(=O)Nc2cccc(Oc3ccc4c(/C=C/c5ccccn5)n[nH]c4c3)c2)nn1C [Reference Example 31(b), 6-[3-((1,5-Dimethyl-1H-pyrazol-3-yl)carboxamido)phenoxy]-3-E-[2-(pyridin-2-yl)ethenyl)-1H-indazole]
AUC (in vivo; ip, 25 mg/kg): > 7040 ng·h/mL
AUC (in vivo; po, 50 mg/kg): 2070 ng·h/mL
IC50 [3, 8]: 5.6 nM
inhibition at 1 µM (LCK tyrosine kinase): 66%
% Inhibition [5, 10]: 32%
inhibition at 1 µM (human FGF-R1): 97%
T1/2 [13]: 1.7 h
T1/2 [14]: 1.0 h

SMILES: O=C(Nc1cccc(Oc2ccc3c(/C=C/c4c[nH]cn4)n[nH]c3c2)c1)c1ccccc1 [Reference Example 32(a), 6-[3-benzamidophenoxy]-3-E-[2-(1H-imidazol-4-yl)ethenyl]-1H-indazole]
AUC (in vivo; ip, 25 mg/kg): > 20600 ng·h/mL
AUC (in vivo; po, 50 mg/kg): 4190 ng·h/mL
IC50 [3, 8]: 4.5 nM
IC50 ([3]; read-out: HUVEC IC50): 0.16 nM
inhibition at 1 µM (LCK tyrosine kinase): 86%
% Inhibition ([5]; Model P9, intravitreal, vehicle PEG/water 50:50): 20%
inhibition at 1 µM (human FGF-R1): 96%

SMILES: O=C(Nc1cccc(Cl)c1)c1ccccc1Sc1ccc2c(/C=C/c3ccccn3)n[nH]c2c1 [Reference Example 33(d), 6-[2-(3-chlorophenylcarbamoyl)phenylsulfanyl]-3-E-[2-(pyridin-2-yl)ethenyl]-1H-indazole]
IC50 [3, 8]: > 300 nM
% remain (HLM, 2 h) (in vitro): 22%
inhibition at 1 µM (LCK tyrosine kinase): 55%
IC50 [1, 7]: 8 µM

— patent EP1614683B1, “Indazole compounds and pharmaceutical compositions for inhibiting protein kinases, and methods for their use” (priority 1999, dated 2001)
